Data on 1 compound can be found in US11420962B2, “Indene derivatives useful in treating pain and inflammation” (TARO PHARMACEUTICALS INC., priority 2018, dated 2022).

For experiment [1], the system named is Rats (male, Sprague-Dawley). In words: TNBS colitis assay in rats. It counts as in vivo. As to conditions: 30 mg/kg dose, PO, QD for 7 days. The method, then:
TNBS Colitis Assay of Representative Compounds in Rats Rats (male, Sprague-Dawley) were anaesthetized and a solution of TNBS (48 mg/kg) in ethanol, was instilled intra-rectally to induce colitis, 1 h after oral dosing of representative compounds of the invention (i.e., test compounds). Test compounds were dosed PO, QD for 7 days, using prednisolone as a reference standard. […] On Day 7, rats were euthanized and the colon was evaluated for length, weight, wall thickness, ulcer number and length and for the presence of adhesions and strictures. A colonic score was calculated based on the severity of the colonic parameters.

The test system of a further experiment is T cells. Nature of the experiment: T cell proliferation (anti-CD3/anti-CD28 dynabeads, CCK-8). The format is cell-based, mice. The settings on record: Table 4, mouse T cells, 72 hours after dynabeads, read-out: Scoring (IC50, cell proliferation). The method, then: Spleens were obtained from six male, CD-1 outbred mice, approximately 8 weeks old. Cells were harvested under sterile conditions by forcing each spleen though a cell filter (pore size 100 μm diameter). A homogenous cell suspension was obtained by washing the cells in fresh medium and passing cells through a smaller cell filter (pore size 70 μm).
Untouched T cells were isolated using the Pan T cell isolation kit (Miltenyi Biotech). Briefly, cells were counted and incubated with the required volume of antibody cocktail for 5 minutes at 4° C. before addition of microbeads and incubation for 10 minutes at 4° C. Labeled cells were retained in a magnetic column while unlabeled cells (T cells) passed through the column and were retained for use in the assay.
Cell viability was assessed by Trypan Blue exclusion and found to be >99% prior to transfer to plates. Isolated T cells were seeded out in 96 well plates at a density of 50,000 cells per well and allowed to incubate for 60 minutes in a humidified cell culture (37° C., 5% CO2) incubator prior to compound treatment. The media used for this assay (TexMACS, Miltenyi Biotech) was previously optimized for proliferation of T cells in serum free conditions.
Representative compounds of the invention (i.e., test compounds) were prepared as 30 mM stocks in 100% DMSO. Test compounds were initially diluted in media to yield 3 mM stocks before an additional 1:10 dilution in media was performed to yield working stocks of 300 μM (1% DMSO). Subsequent dilutions were performed in media (supplemented with 1% DMSO). When added to the assay plates (1:10 dilution), these yielded final concentrations in the assay plates of in 0.1% DMSO. The reference compound, Cyclosporin A, was prepared in an identical manner as above.
Unstimulated and Stimulated Control wells received an identical volume of TexMACS media/1% DMSO at this time, resulting in a final concentration of 0.1% DMSO across the plate. Mouse anti-CD3/anti-CD28 dynabeads were prepared (following the manufacturers' instructions) in TexMACS media and added to appropriate wells to achieve a final concentration of 1 bead per cell. Unstimulated Control wells then received an identical volume of TexMACS. Plates were centrifuged 72 hours after addition of dynabeads, (300×g for 3 minutes) to pellet the cells and 60% of the supernatant was removed to a fresh plate for analysis by ELISA. After removal of 60% of the supernatant for subsequent ELISA, cell proliferation was assessed using the CCK-8 assay.
Average response by the standard compound, cyclosporin A, was 1 uM.

The subject of a further experiment is Rat DRG. Nature of the experiment: Rat dorsal root ganglion excitability response (EFS, Ca2+ transients). The settings on record: Rattus norvegicus; Table 3; electrical field stimulation, Ca5 indicator; read-out: Scoring (EC50, Rat DRG excitability). It counts as cell-based. The method, boiled down:
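Adult rat DRG cells cultured for 2 days were loaded with the Ca5 dye 1 h before electrical field stimulation under four protocols. Compounds were tested at six concentrations (typically top 30 μM, 1:3 steps, duplicate), added either 24 h before or directly before EFS. The read-out was the per-well peak/baseline fluorescence ratio change, with imaging used to check for toxicity.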

The next experiment relates to Human DRG. In words: Human dorsal root ganglion (DRG) excitability response. It counts as cell-based. The settings on record: Table 6; Biological Example 3, human DRG; read-out: Scoring (IC50). As for the experimental part: Human DRGs are transferred into a dissection vessel containing a cold (4° C.), fresh proprietary dissection solution. DRGs are maintained completely submerged in dissection solution followed by dissection by an appropriate method.
Cells are plated into a 96 well plate. Calcium dye (Fluo 8-AM) is loaded in each well for a period of 20 to 25 min, maintaining temperature at ambient. The baseline excitability profile (ability of firing action potentials) of the cells is assessed at both low and high threshold stimulations using optical EFS. Following baseline profiling, cells are subjected to test compounds.
Representative compounds of the invention (i.e., test compounds) are added to cells and the cells are stimulated (using EFS) to induce action potentials at regular intervals, according to the parameters outlined in Table 5. Four concentrations of each compound are utilized and directly injected into separate wells to allow for determination of a dose response (IC50). At the end of the protocol, the nociceptor positive control compound (capsaicin) is perfused into the cells at 200 nM and signal recorded. […]
Recordings are performed in stream mode at 100 Hz for the EFS portion of the above protocol and in time lapse model at 0.2 Hz for the final step utilizing capsaicin. For each concentration tested, the number of cells blocked vs baseline will be counted at different thresholds. […]

The test system of experiment [2] is Rats (male, Sprague-Dawley). In words: Rat carrageenan-induced hyperalgesia and paw edema. The format is in vivo. As to conditions: 30 mg/kg, administered at the time of, or 1 h after challenge. The method, then: Representative compounds of the invention (i.e., test compounds) were administered PO, QD for 3 days prior to carrageenan injection, once at 1 h prior to carrageen, or at 5 min or 1 h post-challenge to rats (male, Sprague-Dawley). Rats received either an intraplantar injection of saline (sham) or carrageen (0.1 mL of a 2% solution [w/v]) in the right hind paw. Mechanical hyperalgesia (using an analgesymeter) and paw volume (using a digital plethysmometer) were measured at baseline (0 hr), 2, 4 and 6 h post carrageenan injection for all the animals. Celecoxib, given 1 h prior to carrageen challenge, was used as a reference standard.

Bounds are passed on as bounds.

As usually defined, the EC50 is the concentration giving half of the maximal effect. On to `C=C1CC[C@H]2[C@H](CN)[C@@H]([C@@]3(C)Cc4cn[nH]c4C[C@@H]3CO)CC[C@]12C` [Ia-1, ((5R,6S)-5-((3aS,4R,5S,7aS)-4-(aminomethyl)-7a-methyl-1-methyleneoctahydro-1H-inden-5-yl)-5-methyl-4,5,6,7-tetrahydro-1H-indazol-6-yl)methanol], for which the “inhibition of the colonic score” value in experiment [1] amounted to 36%. Besides, the IC50 with T cells was 6 to 15 µM; in the experiment on Human DRG, < 2 µM. The EC50 in the experiment on Rat DRG fell in the range of 6 to 15 µM. Moreover, the “average increase in the paw withdrawal threshold as compared to the vehicle” value in experiment [2] was 41%.
